Source: patent US8399420B2, “Azacytidine analogues and uses thereof” (Mount Sanai School of Medicine, priority 2007, dated 2013)

Legend:
[1] = test system: MT-3/ADR resistant breast carcinoma; assay: Cytotoxicity, MTT assay, adriablastin resistant cell line MT-3/ADR; format: cell-based; details: concentration range tested up to 100 μM
Experimental: The cells were seeded in 96-well plates with 5×10^3 cells per well, in RPMI 1640 medium with 2 mM glutamine and 10% FBS. The cells were incubated for 24 hours. The test compounds were dissolved in DMSO and further diluted in medium just prior to use. 6 wells were used per test concentration. The cells were incubated with test compound for 24 hours. 20 μl of freshly prepared MTT solution was added to each well and incubated for 4 hours.

[2] = test system: Hela mutant cervix carcinoma cells; assay: Cytotoxic activity with or without nucleoside transport inhibitor dipyridamole, MTT assay; format: cell-based; details: dipyridamole 10 μM
Experimental: Dipyridamole was used as an inhibitor of the equilibrative nucleoside transporters hENT1 and hENT2. The cells were seeded in 96-well plates with 5×10^3 cells per well, in RPMI 1640 medium with 2 mM glutamine and 10% FBS. The cells were pre-incubated for 24 hours. Dipyridamole (10 μM) was added to the cells 30 minutes prior to the addition of the test compounds. The test compounds were dissolved in DMSO and further diluted in medium just prior to use. 6 wells were used per test concentration. The cells were incubated with test compound for 72 hours. 20 μl of freshly prepared MTT solution was added to each well and incubated for 4 hours.

With `Nc1ncn([C@@H]2O[C@H](CO)[C@@H](O)[C@H]2O)c(=O)n1` [Aza-C, 5-azacytidine] the “activity in the MT-3/ADR resistant cell line” value [1] was “No activity was observed” and the “reduction of activity by addition of dipyridamole” value [2] was 3 fold.
